Experimental findings from article PMC5520047, “Prioritizing multiple therapeutic targets in parallel using automated DNA-encoded library screening” (Nature Communications, 2017) are described below.

A word on the IC50: it is the midpoint of a concentration-inhibition curve. A high value points to weaker potency in that assay.

In brackets after ≈: the same amount, converted by molar mass.

Assay [1] relates to S. aureus WCUH29 wild type. Briefly: MIC broth microdilution. It is filed as cell-based, Staphylococcus aureus. The following applies: Staphylococcus aureus, WCUH29WILDTYPE
Background: Dilution methods test growth across graded concentrations, often in twofold steps.

For assay [2], the system named is A. baumannii BM4652 efflux mutant, pRK415 and pRK415-UppS. Kind of assay: microbe, parasite or virus in culture. It is filed as cell-based, Acinetobacter baumannii.
Assay [3] has as its system Acinetobacter baumannii BM4652 ΔadeABC ΔadeIJK (efflux mutant). Kind of assay: MIC broth microdilution. It is filed as cell-based.
Assay [4] deals with Escherichia coli 7623 ΔtolC. Kind of assay: MIC broth microdilution. It counts as cell-based.
Assay [5] deals with Acinetobacter baumannii ATCC 19606-1 ΔLpxC. Briefly: MIC broth microdilution. It is filed as cell-based. The following applies: ATCC19606.
Assay [6] concerns Klebsiella pneumoniae 1161486a ΔtolC. Kind of assay: MIC broth microdilution. It is filed as cell-based.
The subject of assay [7] is Pseudomonas aeruginosa PA0322 Δ(mexAB-oprM) Δ(mexCD-oprJ) Δ(mexEF-oprN). Kind of assay: MIC broth microdilution. It is filed as cell-based.
The target of the next assay is A. baumannii UppS (Acinetobacter baumannii, UniProt V5VCK8). Briefly: UppS biochemical assay (pyrophosphatase / Biomol Green). The following applies: average of two replicates with s.d. The source says: 368 Both the S. aureus and A. baumannii UppS in vitro biochemical assay use a pyrophosphatase and Biomol
369 Green Phosphate detection reagent to assess catalytic activity. These assays were based on previously
370 described assays both within GSK and others11-13. Briefly, the enzyme will add up to 8 isopentyl
371 pyrophosphate (IPP) units onto a farnesyl pyrophosphate FPP molecule, resulting in the production of 8
372 moles of inorganic pyrophosphates per mole of substrate added. The pyrophosphate is then converted
373 to inorganic phosphate by a pyrophosphatase, and this phosphate is detected by Biomol Green. The
374 assay is conducted in buffer containing 100 mM Trizma pH7.5, 1 mM MgCl2, 6 mM CHAPS and 0.005% […]
378 10 μL. The detection reagent was incubated for 20 min and 610-620 nm light was monitored by a Perkin
379 Elmer Envision plate reader. […]
383 Standard deviation values were calculated using the n-1 method. […]
388 A fluorescence intensity coupled assay was used to measure the in vitro biochemical activity of S. aureus […]
391 enzyme then digests the liberated peptide GFGF-AFC releasing the AFC causing a fluorescence increase
392 monitored by an Envision plate reader. […]
395 90 minute incubation with quench/detection solution, plates were read on an envision plate reader with […]
406 A fluorescence intensity coupled assay was used to measure the in vitro biochemical activity of M. […]

In assay [8] the test system is Haemophilus influenzae H128 ΔacrB. Kind of assay: MIC broth microdilution. It counts as cell-based.

Sequence of A. baumannii UppS (V5VCK8 entry or part of it): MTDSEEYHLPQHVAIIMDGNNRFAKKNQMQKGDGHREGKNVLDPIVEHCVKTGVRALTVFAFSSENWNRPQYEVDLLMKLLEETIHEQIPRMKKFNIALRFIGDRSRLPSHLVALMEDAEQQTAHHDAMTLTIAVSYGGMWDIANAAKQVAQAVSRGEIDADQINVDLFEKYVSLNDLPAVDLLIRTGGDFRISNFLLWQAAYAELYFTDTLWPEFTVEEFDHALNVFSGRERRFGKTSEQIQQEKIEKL

Regarding `CNC(=O)[C@@H](NC(=O)c1cc(Cl)c(Cl)cc1C(=O)NCc1ccc(C(C)(C)C)cc1)C(C)(C)C` [Compound 5], the MIC was more than 128 µg/mL in [1]; 2 µg/mL in assay [2] (A. baumannii BM4652 efflux mutant + pRK415-UppS, 30 μg/ml polymyxin B nonapeptide); 0.25 µg/mL in assay [2] (A. baumannii BM4652 efflux mutant + pRK415, 30 μg/ml polymyxin B nonapeptide); 2 µg/mL in assay [2] (Acinetobacter baumannii, A. baumannii BM4652 efflux mutant + pRK415-UppS, 30 μg/ml polymyxin B nonapeptide); 0.25 µg/mL in [2] (Acinetobacter baumannii, A. baumannii BM4652 efflux mutant + pRK415, 30 μg/ml polymyxin B nonapeptide); 0.25 µg/mL in [2] (Acinetobacter baumannii, A. baumannii BM4652 efflux mutant, N/A (no plasmid), 30 μg/ml polymyxin B nonapeptide). Moreover, the MIC in [2] (Acinetobacter baumannii, without the permeabilising agent) was more than 128 µg/mL; in assay [3] (A. baumannii BM652 efflux strain), more than 128 µg/mL; in [3] (A. baumannii BM4652 ΔadeABC ΔadeIJK efflux mutant), more than 128 µg/mL; in assay [4], more than 128 µg/mL; in assay [5], less than 0.125 µg/mL; in [6], more than 128 µg/mL. The MIC was more than 128 µg/mL in [7] and 1 µg/mL (≈ 1.97 µM) in assay [8]. For the same compound, in assay [2] (pRK415-UppS overexpressing strain relative to parent strain, 30 μg/ml polymyxin B nonapeptide), the “Fold MIC increase” value is recorded as 8 fold. This compound also registered an IC50 on A. baumannii UppS of 43 ± 25 nM.
